Each compound was assayed on RSV strain A2 (assay: RSV antiviral activity, in vitro cytoprotection assay in Hep2 cells). Conditions: human respiratory syncytial virus, HEp-2; 0.5 μM compound; RSV-induced cytopathic effect in Hep2 cells; % inhibition calculated from fitted 4-parameter dose response curve, normalized to 0% and 100%; read-out: Percent inhibition at 0.5 μM.
Format: cell-based, Respiratory Syncytial Virus (RSV)
Description: Antiviral activity against RSV was determined using an in vitro cytoprotection assay in Hep2 cells. […] The method used was similar to methods previously described in published literature (Chapman et al., Antimicrob Agents Chemother. 2007, 51(9):3346-53.)
Hep2 cells were obtained from ATCC (Manassas, Va.) and maintained in MEM media supplemented with 10% fetal bovine serum and penicillin/streptomycin. Cells were passaged twice a week and kept at subconfluent stage. Commercial stock of RSV strain A2 (Advanced Biotechnologies, Columbia, Md.) was titered before compound testing to determine the appropriate dilution of the virus stock that generated desirable cytopathic effect in Hep2 cells.
For antiviral tests, Hep2 cells were seeded into 96-well plates 24 hours before the assay at a density of 3,000 cells/well. On a separate 96 well plate, compounds to be tested were serially diluted in cell culture media. Eight concentrations in 3-fold serial dilution increments were prepared for each tested compound and 100 uL/well of each dilution was transferred in duplicate onto plates with seeded Hep2 cells. Subsequently, appropriate dilution of virus stock previously determined by titration was prepared in cell culture media and 100 uL/well was added to test plates containing cells and serially diluted compounds. Each plate included three wells of infected untreated cells and three wells of uninfected cells that served as 0% and 100% virus inhibition control, respectively. Following the infection with RSV, testing plates were incubated for 4 days in a tissue culture incubator. After the incubation, RSV-induced cytopathic effect was determined using a Cell TiterGlo reagent (Promega, Madison, Wis.) followed by a luminescence read-out. The percentage inhibition was calculated for each tested concentration relative to the 0% and 100% inhibition controls and the EC50 value for each compound was determined by non-linear regression as a concentration inhibiting the RSV-induced cytopathic effect by 50%. Ribavirin (purchased from Sigma, St. Louis, Mo.) was used as a positive control for antiviral activity.
Compounds were also tested for antiviral activity against RSV in Hep2 cells using a 384 well format. Compounds were diluted in DMSO using a 10-step serial dilution in 3-fold increments via automation in 4 adjacent replicates each. Eight compounds were tested per dilution plate. 0.4 uL of diluted compounds were then stamped via Biomek into 384-well plates (Nunc 142761 or 164730 w/lid 264616) containing 20 μL of media (Mediatech Inc. MEM supplemented with Glutamine, 10% FBS and Pen/Strep). DMSO and a suitable positive control compound, such as 80 μM GS-329467 or 10 μM 427346 was used for the 100% and 0% cell killing controls, respectively.
Hep2 cells (1.0×10^5 cells/ml) were prepared as above in batch to at least 40 mls excess of the number of sample plates (8 mls cell mix per plate) and infected with vendor supplied (ABI) RSV strain A2 to arrive at an MOI of 1:1000 (virus:cell #) or 1:3000 (vol virus:cell vol). Immediately after addition of virus, the RSV infected Hep2 cell suspension was added to each stamped 384-well plate at 20 μl per well using a uFlow dispenser, giving a final volume of 40 μL/well, each with 2000 infected cells. The plates were then incubated for 5 days at 37° C. and 5% CO2. Following incubation, the plates were equilibrated to room temperature in a biosafety cabinet hood for 1.5 hrs and 40 μL of Cell-Titer Glo viability reagent (Promega) was added to each well via uFlow. Following a 10-20 minute incubation, the plates were read using an EnVision or Victor Luminescence plate reader (Perkin-Elmer). The data was then uploaded and analyzed on the Bioinformatics portal under the RSV Cell Infectivity and 8-plate EC50-Hep2-384 or 8-plate EC50-Hep2-Envision protocols. […]
With `CS(=O)(=O)Nc1ccc(Cl)cc1C(=O)N1CCCC[C@H]1c1cn2nc(N3CCC3)ccc2n1` [Compound 106] the inhibition at 0.5 µM was 100%.
Work on `Cc1cc2nc([C@@H]3CCCCN3C(=O)c3cc(Cl)ccc3NS(C)(=O)=O)cn2nc1N1CC[C@H](N)C1` [Compound 107] yielded an inhibition at 0.5 µM of 100%.
`Cc1cc(N2CC[C@H](N)C2)nn2cc([C@@H]3CCCCN3C(=O)c3cc(Cl)ccc3NS(C)(=O)=O)nc12` [Compound 108] showed an inhibition at 0.5 µM of 100%.
`Cc1ccc(NS(C)(=O)=O)c(C(=O)N2CCCC[C@H]2c2nc3cc(C)cc(C)n3n2)c1` [Compound 110] showed an inhibition at 0.5 µM of 60%.
Compound `CS(=O)(=O)Nc1ccc(Cl)cc1C(=O)N1CCCC[C@H]1c1cc2ccc(N3CCC3)nn2c1` [Compound 111] has an inhibition at 0.5 µM of 56%.
`Cc1ccc(NS(C)(=O)=O)c(C(=O)N2CCCC[C@H]2c2nc3c(C)cc(C)nc3[nH]2)c1` [Compound 112] was tested, and the inhibition at 0.5 µM was 5%.
`Cc1cc(C)n2nc(C3CCCCN3C(=O)c3cc(Cl)ccc3NS(C)(=O)=O)nc2n1` (stereo not drawn) [Compound 113] was tested, and the inhibition at 0.5 µM was 16%.
Work on `Cc1cc(NS(C)(=O)=O)c(C(=O)N2CCCC[C@H]2c2cn3nc(N4CC[C@H](N)C4)c(C)cc3n2)s1` [Compound 114] yielded an inhibition at 0.5 µM of 100%.
`Cc1ccc(NS(C)(=O)=O)c(C(=O)N2CCCC[C@H]2c2cn3nc(N4CC[C@H](N)C4)c(C)cc3n2)c1` [Compound 115] showed an inhibition at 0.5 µM of 100%.
In the case of `Cc1cc2nc([C@@H]3CCCCN3C(=O)C(NS(C)(=O)=O)c3ccccc3Br)cn2nc1N1CC[C@H](N)C1` (stereo partly drawn) [Compound 116], the inhibition at 0.5 µM is reported as 100%.
`CS(=O)(=O)Nc1ccc(Cl)cc1C(=O)N1CCCC[C@H]1c1cn2nc(N3CC[C@H](N)C3)ccc2n1` [Compound 117] was tested, and the inhibition at 0.5 µM was 100%.
Work on `CS(=O)(=O)Nc1ccc(Cl)cc1C(=O)N1CCCC[C@H]1c1cn2nc(N3C[C@@H](C#N)[C@@H](O)C3)ccc2n1` [Compound 118] yielded an inhibition at 0.5 µM of 100%.
`Cc1cccc(C(=O)N2CCCC[C@H]2c2cn3nc(N4CC[C@H](N)C4)ccc3n2)n1` [Compound 119] showed an inhibition at 0.5 µM of 83%.
In the case of `CS(=O)(=O)Nc1ccc(Cl)cc1C(=O)N1CCCC[C@H]1c1cn2nc(N3CC(O)C3)ccc2n1` [Compound 120], the inhibition at 0.5 µM is reported as 100%.
Work on `Cc1ccc(Cl)cc1C(=O)N1CCCC[C@H]1c1cn2nc(N3CC[C@H](N)C3)ccc2n1` [Compound 121] yielded an inhibition at 0.5 µM of 100%.

— US10174038B2, “Compounds and methods for antiviral treatment” (Gilead Sciences, Inc., priority 2012, dated 2019)
